According to ChEMBL document CHEMBL3132769, “Fragment growing to retain or alter the selectivity of anchored kinase hinge-binding fragments” (Medchemcomm, 2014):

Tests used:
[1] = target: T1, MAP kinase-activated protein kinase 5 (Homo sapiens) (UniProt Q8IW41); assay: Inhibition of human full length PRAK expressed in baculovirus assessed as substrate phosphorylation using fluorescence-labelled peptides as substrate at 9 uM after 90 mins by microfluidic peptide phosphorylation assay
T1 sequence (whole entry): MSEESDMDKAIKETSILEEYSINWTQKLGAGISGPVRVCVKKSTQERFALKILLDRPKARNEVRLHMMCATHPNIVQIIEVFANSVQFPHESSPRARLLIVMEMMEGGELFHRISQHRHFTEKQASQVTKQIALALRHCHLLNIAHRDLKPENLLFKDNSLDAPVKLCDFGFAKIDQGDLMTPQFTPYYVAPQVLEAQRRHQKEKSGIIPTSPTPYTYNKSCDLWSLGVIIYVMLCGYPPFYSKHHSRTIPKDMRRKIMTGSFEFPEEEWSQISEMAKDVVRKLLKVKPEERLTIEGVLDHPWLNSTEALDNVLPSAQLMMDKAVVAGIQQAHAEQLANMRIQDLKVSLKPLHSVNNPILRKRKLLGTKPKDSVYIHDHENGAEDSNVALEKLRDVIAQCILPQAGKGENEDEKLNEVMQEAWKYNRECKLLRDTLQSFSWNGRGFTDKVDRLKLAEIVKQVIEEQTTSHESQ

[2] = target: Protein kinase C gamma type (Homo sapiens) (UniProt P05129); assay: Inhibition of human truncated PKC gamma expressed in baculovirus assessed as substrate phosphorylation using fluorescence-labelled peptides as substrate at 9 uM after 90 mins by microfluidic peptide phosphorylation assay
[3] = tested on: T2, Receptor-type tyrosine-protein kinase FLT3 (Homo sapiens), P36888 [D835Y]; assay: Inhibition of human FLT3 D835Y mutant catalytic domain expressed in baculovirus assessed as substrate phosphorylation using fluorescence-labelled peptides as substrate at 95 uM after 90 mins by microfluidic peptide phosphorylation assay
T2 sequence (whole entry): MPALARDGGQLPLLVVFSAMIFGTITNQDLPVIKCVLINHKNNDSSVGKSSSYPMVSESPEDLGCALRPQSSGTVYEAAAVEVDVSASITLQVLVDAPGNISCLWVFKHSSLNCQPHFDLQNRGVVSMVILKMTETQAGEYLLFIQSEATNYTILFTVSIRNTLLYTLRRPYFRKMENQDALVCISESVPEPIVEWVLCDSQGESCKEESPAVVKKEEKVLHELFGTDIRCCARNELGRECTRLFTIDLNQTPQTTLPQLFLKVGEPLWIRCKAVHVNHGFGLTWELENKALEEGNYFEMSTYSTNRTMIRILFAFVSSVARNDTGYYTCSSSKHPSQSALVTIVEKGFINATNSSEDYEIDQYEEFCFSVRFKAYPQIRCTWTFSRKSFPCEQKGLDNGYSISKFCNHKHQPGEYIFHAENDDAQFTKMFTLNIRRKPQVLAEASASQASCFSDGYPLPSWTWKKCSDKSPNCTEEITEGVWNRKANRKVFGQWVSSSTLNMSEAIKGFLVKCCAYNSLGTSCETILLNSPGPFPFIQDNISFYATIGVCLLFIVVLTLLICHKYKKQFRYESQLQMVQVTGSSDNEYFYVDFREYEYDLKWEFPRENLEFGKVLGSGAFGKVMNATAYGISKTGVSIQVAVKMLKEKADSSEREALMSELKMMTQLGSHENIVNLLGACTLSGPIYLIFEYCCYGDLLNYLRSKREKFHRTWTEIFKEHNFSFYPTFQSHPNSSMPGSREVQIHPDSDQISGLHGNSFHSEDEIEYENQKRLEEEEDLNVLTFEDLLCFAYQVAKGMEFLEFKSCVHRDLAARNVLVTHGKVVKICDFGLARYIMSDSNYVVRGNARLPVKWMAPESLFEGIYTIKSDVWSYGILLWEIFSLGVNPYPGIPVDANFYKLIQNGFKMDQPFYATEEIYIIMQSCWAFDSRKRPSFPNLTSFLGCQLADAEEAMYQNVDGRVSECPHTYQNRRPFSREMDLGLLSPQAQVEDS

[4] = target: Fibroblast growth factor receptor 4 (Homo sapiens) (UniProt P22455); assay: Inhibition of human FGFR4 catalytic domain expressed in baculovirus assessed as substrate phosphorylation using fluorescence-labelled peptides as substrate at 0.06 uM after 90 mins by microfluidic peptide phosphorylation assay
[5] = target: Ribosomal protein S6 kinase alpha-3 (Homo sapiens) (UniProt P51812); assay: Inhibition of human full length RSK2 expressed in baculovirus assessed as substrate phosphorylation using fluorescence-labelled peptides as substrate at 0.06 uM after 90 mins by microfluidic peptide phosphorylation assay
[6] = target: Protein kinase C theta type (Homo sapiens) (UniProt Q04759); assay: Inhibition of human truncated PKC theta expressed in baculovirus assessed as substrate phosphorylation using fluorescence-labelled peptides as substrate at 70 uM after 90 mins by microfluidic peptide phosphorylation assay
[7] = target: T3, Serine/threonine-protein kinase DCLK2 (Homo sapiens) (UniProt Q8N568); assay: Inhibition of human full length DCAMKL2 expressed in baculovirus assessed as substrate phosphorylation using fluorescence-labelled peptides as substrate at 70 uM after 90 mins by microfluidic peptide phosphorylation assay
T3 sequence (whole entry): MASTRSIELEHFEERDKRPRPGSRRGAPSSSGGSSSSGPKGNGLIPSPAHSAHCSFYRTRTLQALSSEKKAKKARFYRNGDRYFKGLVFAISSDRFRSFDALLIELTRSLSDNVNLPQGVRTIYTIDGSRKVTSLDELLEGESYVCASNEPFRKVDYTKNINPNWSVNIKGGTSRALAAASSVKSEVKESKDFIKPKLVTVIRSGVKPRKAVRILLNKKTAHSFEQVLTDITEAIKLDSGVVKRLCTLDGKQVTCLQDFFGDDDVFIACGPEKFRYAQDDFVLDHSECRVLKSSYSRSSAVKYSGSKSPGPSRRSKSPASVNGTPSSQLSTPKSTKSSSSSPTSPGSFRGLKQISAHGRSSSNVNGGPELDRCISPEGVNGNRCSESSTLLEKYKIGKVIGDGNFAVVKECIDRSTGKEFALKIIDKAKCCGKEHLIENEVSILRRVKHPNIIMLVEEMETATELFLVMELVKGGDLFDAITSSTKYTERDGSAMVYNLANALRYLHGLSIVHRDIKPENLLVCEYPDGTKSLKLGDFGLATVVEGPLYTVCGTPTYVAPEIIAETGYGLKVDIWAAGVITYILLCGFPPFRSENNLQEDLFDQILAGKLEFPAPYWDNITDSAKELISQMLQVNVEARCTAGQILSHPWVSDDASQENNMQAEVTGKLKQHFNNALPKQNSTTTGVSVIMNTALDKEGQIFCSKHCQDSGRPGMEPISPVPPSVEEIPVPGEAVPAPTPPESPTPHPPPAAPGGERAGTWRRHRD

[8] = target: T1, MAP kinase-activated protein kinase 5 (Homo sapiens); assay: Inhibition of human full length PRAK expressed in baculovirus assessed as substrate phosphorylation using fluorescence-labelled peptides as substrate at 2 uM after 90 mins by microfluidic peptide phosphorylation assay
[9] = target: Protein kinase C beta type (Homo sapiens) (UniProt P05771); assay: Inhibition of human full length PKC beta2 expressed in baculovirus assessed as substrate phosphorylation using fluorescence-labelled peptides as substrate at 1000 uM after 90 mins by microfluidic peptide phosphorylation assay
Chain of Protein kinase C beta type (Homo sapiens) (P05771 2-671 limits assumed): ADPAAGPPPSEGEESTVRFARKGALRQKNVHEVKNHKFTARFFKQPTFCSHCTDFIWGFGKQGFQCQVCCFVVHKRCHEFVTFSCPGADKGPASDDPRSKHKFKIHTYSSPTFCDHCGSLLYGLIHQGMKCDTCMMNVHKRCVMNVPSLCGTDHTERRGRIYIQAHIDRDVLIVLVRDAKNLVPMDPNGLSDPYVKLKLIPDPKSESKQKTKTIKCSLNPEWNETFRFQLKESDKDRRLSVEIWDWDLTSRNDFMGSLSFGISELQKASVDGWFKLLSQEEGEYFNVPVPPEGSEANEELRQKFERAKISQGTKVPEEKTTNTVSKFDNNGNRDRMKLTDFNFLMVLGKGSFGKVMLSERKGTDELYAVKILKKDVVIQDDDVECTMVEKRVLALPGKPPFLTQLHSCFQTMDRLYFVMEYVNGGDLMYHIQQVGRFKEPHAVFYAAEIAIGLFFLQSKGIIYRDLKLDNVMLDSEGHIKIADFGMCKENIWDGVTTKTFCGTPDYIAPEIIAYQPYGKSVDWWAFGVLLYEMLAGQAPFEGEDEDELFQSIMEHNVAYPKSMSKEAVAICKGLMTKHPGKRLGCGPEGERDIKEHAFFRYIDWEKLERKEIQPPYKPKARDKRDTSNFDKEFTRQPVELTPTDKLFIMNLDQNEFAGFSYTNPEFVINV

Chain of Ribosomal protein S6 kinase alpha-3 (Homo sapiens) (P51812 whole entry, the tested form may be a part): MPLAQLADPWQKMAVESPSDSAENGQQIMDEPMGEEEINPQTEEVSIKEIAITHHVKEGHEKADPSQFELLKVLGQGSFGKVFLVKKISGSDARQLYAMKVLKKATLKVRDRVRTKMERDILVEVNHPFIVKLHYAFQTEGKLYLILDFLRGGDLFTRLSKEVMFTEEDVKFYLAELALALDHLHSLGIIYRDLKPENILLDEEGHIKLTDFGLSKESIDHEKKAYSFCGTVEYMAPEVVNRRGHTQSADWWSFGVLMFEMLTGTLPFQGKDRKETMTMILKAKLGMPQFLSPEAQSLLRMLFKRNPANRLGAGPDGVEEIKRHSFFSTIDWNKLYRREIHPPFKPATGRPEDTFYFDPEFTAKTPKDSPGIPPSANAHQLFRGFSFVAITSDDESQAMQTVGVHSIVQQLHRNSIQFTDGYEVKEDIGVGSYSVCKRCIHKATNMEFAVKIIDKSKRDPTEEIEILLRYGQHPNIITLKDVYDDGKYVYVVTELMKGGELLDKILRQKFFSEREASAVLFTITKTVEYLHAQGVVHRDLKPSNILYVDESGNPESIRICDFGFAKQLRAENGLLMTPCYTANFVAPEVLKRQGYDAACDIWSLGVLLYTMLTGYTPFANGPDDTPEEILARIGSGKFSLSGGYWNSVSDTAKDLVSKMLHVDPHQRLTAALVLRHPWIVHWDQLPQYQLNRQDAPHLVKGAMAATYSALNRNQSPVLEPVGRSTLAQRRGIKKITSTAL
Chain of Protein kinase C theta type (Homo sapiens) (Q04759 whole entry, looked up, the tested form may be a part): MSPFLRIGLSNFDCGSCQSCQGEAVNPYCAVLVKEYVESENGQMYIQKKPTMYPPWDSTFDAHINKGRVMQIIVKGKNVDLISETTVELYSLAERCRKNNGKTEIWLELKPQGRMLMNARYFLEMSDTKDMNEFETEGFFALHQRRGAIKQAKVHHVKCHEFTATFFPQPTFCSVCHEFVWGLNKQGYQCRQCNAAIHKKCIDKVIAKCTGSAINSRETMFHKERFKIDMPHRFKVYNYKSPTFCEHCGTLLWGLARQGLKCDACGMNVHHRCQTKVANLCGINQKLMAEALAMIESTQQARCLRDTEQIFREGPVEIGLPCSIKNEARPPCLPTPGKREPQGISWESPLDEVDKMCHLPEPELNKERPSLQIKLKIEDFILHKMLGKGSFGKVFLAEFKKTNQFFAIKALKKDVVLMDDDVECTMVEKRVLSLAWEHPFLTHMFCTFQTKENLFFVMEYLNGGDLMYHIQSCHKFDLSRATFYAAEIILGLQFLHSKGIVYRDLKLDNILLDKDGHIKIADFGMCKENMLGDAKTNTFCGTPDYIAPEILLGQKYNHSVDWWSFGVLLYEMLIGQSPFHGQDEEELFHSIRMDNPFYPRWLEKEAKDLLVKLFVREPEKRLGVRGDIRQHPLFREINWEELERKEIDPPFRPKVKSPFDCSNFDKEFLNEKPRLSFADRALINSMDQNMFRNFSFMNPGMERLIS
Chain of Fibroblast growth factor receptor 4 (Homo sapiens) (P22455 22-802 limits assumed): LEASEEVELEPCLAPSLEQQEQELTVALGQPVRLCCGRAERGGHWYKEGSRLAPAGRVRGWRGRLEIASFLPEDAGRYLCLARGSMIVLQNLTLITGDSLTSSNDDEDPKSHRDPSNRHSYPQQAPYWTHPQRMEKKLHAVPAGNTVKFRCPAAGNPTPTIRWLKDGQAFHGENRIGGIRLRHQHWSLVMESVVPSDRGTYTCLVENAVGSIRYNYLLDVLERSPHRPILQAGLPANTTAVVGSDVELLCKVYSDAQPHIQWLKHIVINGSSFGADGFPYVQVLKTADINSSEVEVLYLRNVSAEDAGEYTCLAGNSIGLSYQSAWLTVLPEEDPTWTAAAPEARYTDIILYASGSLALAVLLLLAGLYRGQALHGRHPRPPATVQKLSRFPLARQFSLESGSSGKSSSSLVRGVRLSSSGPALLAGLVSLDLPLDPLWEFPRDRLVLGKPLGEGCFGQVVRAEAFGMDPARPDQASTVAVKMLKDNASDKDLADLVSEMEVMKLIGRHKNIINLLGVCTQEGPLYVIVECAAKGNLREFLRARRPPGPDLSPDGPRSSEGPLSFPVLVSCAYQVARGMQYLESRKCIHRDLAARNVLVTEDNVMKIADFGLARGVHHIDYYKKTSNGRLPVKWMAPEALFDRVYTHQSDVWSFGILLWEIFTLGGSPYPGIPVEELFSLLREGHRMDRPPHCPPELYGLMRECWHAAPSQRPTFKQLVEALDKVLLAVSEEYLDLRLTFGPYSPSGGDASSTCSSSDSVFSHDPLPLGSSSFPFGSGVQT

Q: What does the source list for `NCC1CN(c2ncnc3[nH]c4cnccc4c23)CCO1` (centres undefined)?
A: inhibition [1]: 0%; inhibition [2]: 34.5%

Q: `NCCc1ccc(-c2ncnc3[nH]cnc23)cc1` was tested. Which inhibition [3] did it give?
A: 86%

Q: Which inhibition [4] does the source give for `NC1(Cc2ccc(Cl)cc2)CCN(c2ncnc3[nH]ccc23)CC1` here?
A: 2%

Q: What about the inhibition [5] of the same compound?
A: 0.5%

Q: `CNCc1ccc(-c2ncnc3[nH]cnc23)cc1` was tested. Which inhibition [6] did it give?
A: 67.5%

Q: And the inhibition [7]?
A: 20.5%

Q: `NC1CCN(c2ncnc3[nH]ccc23)CC1` was tested. Which inhibition [8] did it give?
A: 7%

Q: Which inhibition [9] does the source give for `c1cnc2[nH]ccc2c1` here?
A: 21%
